Read-outs that look alike come from different tables or passages of the source. *1 amine or outer side, *2 acyl side, *3 side chain or, on linkers, in order; H or OH if unused. Where a SMILES comes first, the peptide text is derived from it. Bridges are numbered along the chain shown (N, C = ends). [ ]: non-standard residue; d: D form. The star is where a group is joined. hTyr(3S-OH,4S-OH,3'-OSO3H) = N[C@H](C(=O)O)[C@H](O)[C@@H](O)c1ccc(O)c(OS(=O)(=O)O)c1; Orn(4R-OH,5R-OH) = O=C([C@H](C[C@@H](O)[C@@H](O)N[*:3])N[*:1])[*:2]; Tetradecanoyl(10R,12S-Me2) = CC[C@H](C)C[C@H](C)CCCCCCCCC(=O)*; hTyr(3S-OH,4S-OH) = N[C@H](C(=O)O)[C@H](O)[C@@H](O)c1ccc(O)cc1; Pro(3S-OH,4S-Me) = C[C@H]1CN[C@H](C(=O)O)[C@H]1O; Gln(3R-OH) = NC(=O)C[C@@H](O)[C@H](N)C(=O)O; Pro(3S-OH) = O=C(O)[C@H]1NCC[C@@H]1O; Palmitoyl = CCCCCCCCCCCCCCCC(=O)*; Hyp = O=C(O)[C@@H]1C[C@@H](O)CN1
Key:
[1] = system: T. gondii RH strain (RH-Tub-eYFP) tachyzoites; assay: microbe, parasite or virus in culture; type: cell-based, Toxoplasma gondii; details: for percent parasite growth at 2 µg/mL: Toxoplasma gondii; for Mean / Replicate 1 / Replicate 2: 2 μg/mL; for Mean: mean of both replicates, growth (% of control); for Replicate 1 / Replicate 2: values are growth (% of control)
[2] = system: P. falciparum 3D7 parasites; assay: P. falciparum growth inhibition assay, 2-cycle (120 h treatment), delayed-death screen and dose-response; type: cell-based, Plasmodium falciparum; details: 120 h; for activity at 2 µg/mL: Plasmodium falciparum
[3] = system: P. falciparum 3D7 parasites; assay: P. falciparum growth inhibition assay, 1-cycle (72 h treatment), SYBR DNA staining (library screen at 2 μg/mL and dose-response); type: cell-based, Plasmodium falciparum; details: for activity at 2 µg/mL: Plasmodium falciparum; for activity at 2 µg/mL / Pf_72h_%Growth_Rep1 / Pf_72h_%Growth_Rep2: 72 h
[4] = 72 h, T. gondii, 72 h, screen at 2 μg/mL, replicate 1, read-out: Tg_72h_%Growth_Rep1
[5] = 72 h, T. gondii, 72 h, screen at 2 μg/mL, replicate 2, read-out: Tg_72h_%Growth_Rep2
[6] = library screen at 2 μg/mL, % growth, replicate 1
[7] = library screen at 2 μg/mL, % growth, replicate 2
[8] = P. falciparum, screen at 2 μg/mL, replicate 1
[9] = P. falciparum, screen at 2 μg/mL, replicate 2
[10] = P. falciparum, parasite screen 2 μg/mL, % growth, replicate 1
[11] = P. falciparum, parasite screen 2 μg/mL, % growth, replicate 2
[12] = active against the parasite at 2 μg/mL, no anti-tumour (NS-1) or cytotoxic (fibroblast) activity at 5 μg/mL

Nc1ncnc2c1ncn2[C@@H]1O[C@H](CO)C[C@H]1O [Cordycepin]
percent parasite growth at 2 µg/mL [1, 4]: 80% | percent parasite growth at 2 µg/mL [1, 5]: 99.7% | activity at 2 µg/mL ([2]; 3D7, P. falciparum, screen at 2 μg/mL, replicate 1, read-out: Pf_120h_%Growth_Rep1): 24.5% | activity at 2 µg/mL ([2]; 3D7, P. falciparum, screen at 2 μg/mL, replicate 2, read-out: Pf_120h_%Growth_Rep2): 12.4% | activity at 2 µg/mL ([3]; 3D7, P. falciparum, screen at 2 μg/mL, replicate 1, read-out: Pf_72h_%Growth_Rep1): 22.1% | activity at 2 µg/mL ([3]; 3D7, P. falciparum, screen at 2 μg/mL, replicate 2, read-out: Pf_72h_%Growth_Rep2): 11.8%

CCCCCCCCCCCCCCCC(=O)N[C@H]1C[C@@H](O)[C@@H](O)NC(=O)[C@@H]2[C@@H](O)[C@@H](C)CN2C(=O)[C@H]([C@H](O)CC(N)=O)NC(=O)[C@H]([C@H](O)[C@@H](O)c2ccc(O)c(OS(=O)(=O)O)c2)NC(=O)[C@@H]2C[C@@H](O)CN2C(=O)[C@H]([C@@H](C)O)NC1=O [FR 901379] (Palmitoyl-[Orn(4R-OH,5R-OH)]T[Hyp][hTyr(3S-OH,4S-OH,3'-OSO3H)][Gln(3R-OH)][Pro(3S-OH,4S-Me)]; lactam 1-C)
Tg_72h_%Growth_Rep1 ([1]; library screen at 2 μg/mL, 72 h, % growth, replicate 1): 119.40% | Tg_72h_%Growth_Rep2 ([1]; library screen at 2 μg/mL, 72 h, % growth, replicate 2): 105.49% | Pf_120h_%Growth_Rep1 [2, 6]: 96.37% | Pf_120h_%Growth_Rep2 [2, 7]: 99.58% | Pf_72h_%Growth_Rep1 [3, 6]: 84.19% | Pf_72h_%Growth_Rep2 [3, 7]: 83.86%

NC(=O)C#CC(N)=O [Cellocidin]
Tg_72h_%Growth_Rep1 ([1]; T. gondii, 72 h, screen at 2 μg/mL, replicate 1): 79.59% | Tg_72h_%Growth_Rep2 ([1]; T. gondii, 72 h, screen at 2 μg/mL, replicate 2): 92.91% | Pf_120h_%Growth_Rep1 [2, 8]: 151.65% | Pf_120h_%Growth_Rep2 [2, 9]: 95.14% | Pf_72h_%Growth_Rep1 [3, 8]: 102.17% | Pf_72h_%Growth_Rep2 [3, 9]: 89.58%

CC[C@H](C)C[C@H](C)CCCCCCCCC(=O)N[C@H]1C[C@@H](O)[C@@H](O)NC(=O)[C@@H]2[C@@H](O)CCN2C(=O)[C@H]([C@H](O)CC(N)=O)NC(=O)[C@H]([C@H](O)[C@@H](O)c2ccc(O)cc2)NC(=O)[C@@H]2C[C@@H](O)CN2C(=O)[C@H]([C@@H](C)O)NC1=O [Pneumocandin B0] ({Tetradecanoyl(10R,12S-Me2)}-[Orn(4R-OH,5R-OH)]T[Hyp][hTyr(3S-OH,4S-OH)][Gln(3R-OH)][Pro(3S-OH)]; lactam 1-C)
Tg_72h_%Growth_Rep1 ([1]; T. gondii, 72 h, parasite screen 2 μg/mL, % growth, replicate 1): 104.00% | Tg_72h_%Growth_Rep2 ([1]; T. gondii, 72 h, parasite screen 2 μg/mL, % growth, replicate 2): 85.61% | Pf_120h_%Growth_Rep1 [2, 10]: 81.62% | Pf_120h_%Growth_Rep2 [2, 11]: 136.49% | Pf_72h_%Growth_Rep1 [3, 10]: 84.80% | Pf_72h_%Growth_Rep2 [3, 11]: 90.52%

O=C(O)/C=C/c1ccc(O)c(O)c1 [Caffeic acid]
percent parasite growth at 2 µg/mL [1, 4]: 101% | percent parasite growth at 2 µg/mL [1, 5]: 88.3% | activity at 2 µg/mL ([2]; 3D7, 120 h, P. falciparum, screen at 2 μg/mL, replicate 1, read-out: Pf_120h_%Growth_Rep1): 144% | activity at 2 µg/mL ([2]; 3D7, 120 h, P. falciparum, screen at 2 μg/mL, replicate 2, read-out: Pf_120h_%Growth_Rep2): 88.4% | activity at 2 µg/mL ([3]; 3D7, 72 h, P. falciparum, screen at 2 μg/mL, replicate 1, read-out: Pf_72h_%Growth_Rep1): 83.7% | activity at 2 µg/mL ([3]; 3D7, 72 h, P. falciparum, screen at 2 μg/mL, replicate 2, read-out: Pf_72h_%Growth_Rep2): 86%

C=C[C@]1(C)C[C@@H](O)[C@]2(C)[C@H](C)CC[C@]3(CCC(=O)[C@H]32)[C@@H](C)[C@@H]1O [Mutilin]
Screen (T. gondii) ([1]; library screen at 2 μg/mL, RH strain, 72 h): I, I | Screen (P. falciparum) ([3]; library screen at 2 μg/mL, 3D7, 72 h, DD from the 120 h timepoint): I, I

CC(=O)O[C@@H]1[C@@H]2O[C@H]2[C@@](C)(O)C(=O)[C@@H](C)C/C=C/[C@H]2[C@H](O)C(C)=C(C)[C@H]3[C@H](Cc4ccccc4)NC(=O)[C@@]123 [19,20-epoxycytochalasin C]
selectivity for T. gondii in the screens [1, 12]: active selectively against P. falciparum and T. gondii | selectivity for P. falciparum in the screens [3, 12]: active selectively against P. falciparum and T. gondii

CN1CC[C@]2(c3cccc4c3N[C@H]3N(C)CC[C@@]43[C@]34CCN(C)[C@H]3Nc3ccccc34)c3ccccc3N[C@H]12 [Hodgkinsine B]
Mean ([1]; T. gondii, 72 h): 34.28 | Replicate 1 ([1]; T. gondii, 72 h): 8.86 | Replicate 2 ([1]; T. gondii, 72 h): 59.70

CC(C)=CCC[C@H](C)[C@H]1CC[C@]2(C)C[C@H]3[C@H](C(=O)C[C@@]3(C)O)/C(C=O)=C\C[C@@H]12 [Ophiobolin C]
Mean ([1]; T. gondii, 72 h): 48.72 | Replicate 1 ([1]; T. gondii, 72 h): 7.63 | Replicate 2 ([1]; T. gondii, 72 h): 89.80

Reference: PMC12396409, “Screening and hit evaluation of a microbial metabolite library against the pathogenic Plasmodium falciparum and Toxoplasma gondii parasites” (International Journal for Parasitology: Drugs and Drug …, 2025)
